In US10710978B2, “STK4 inhibitors for treatment of hematologic malignancies” (Dana-Farber Cancer Institute, Inc., priority 2015, dated 2020):
Like-named read-outs stand apart in the source and are kept apart here.

Key:
Assay in all cases: KiNativ assay
Format in all cases: binding
[1] = system: ALK2, ALK4, ALK7, BMPR1B, TGFbR1; details: H929 live cell; for % inhibition: 10 μM, range class
How it was run: (§1)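 In duplicate, compounds at 10 μM were screened against kinases in H929 live cells using KiNativ, with MS as the detection method for IC50.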

MELK = MELK (Homo sapiens (Human), UniProt Q14680); details: H929 live cell
How it was run: (§2)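 H929 live-cell screen at 10 μM, run in duplicate. Kinase occupancy was assessed via the KiNativ platform, with IC50 determined by mass spectrometry.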

LZK = LZK (Homo sapiens (Human), UniProt O43283); details: H929 live cell
How it was run: as §1

PCTAIRE2, PCTAIRE3 = details: H929 live cell; for % inhibition: 10 μM, range class
How it was run: as §1

MAST1, MAST2 = details: H929 live cell; for % inhibition: 10 μM, range class
How it was run: as §2

ATM = ATM (Homo sapiens (Human), UniProt Q13315); details: H929 live cell
How it was run: as §1

CLK3 = CLK3 (Homo sapiens (Human), UniProt P49761); details: H929 live cell
How it was run: as §2

MAP3K6 = MAP3K6 (Homo sapiens (Human), UniProt O95382); details: H929 live cell
How it was run: as §2

TAK1 = TAK1 (Homo sapiens (Human), UniProt O43318); details: H929 live cell
How it was run: as §2

CaMK4 = CaMK4 (Homo sapiens (Human), UniProt Q16566); details: H929 live cell
How it was run: as §2

ZC3/MINK = ZC3/MINK (Homo sapiens (Human), UniProt Q8N4C8); details: H929 live cell
How it was run: as §1

Erk5 = Erk5 (Homo sapiens (Human), UniProt Q13164); details: H929 live cell
How it was run: as §2

MAP3K15 = MAP3K15 (Homo sapiens (Human), UniProt Q6ZN16); details: H929 live cell
How it was run: as §1

LATS2 = LATS2 (Homo sapiens (Human), UniProt Q9NRM7); details: H929 live cell
How it was run: as §2

PCTAIRE1 = PCTAIRE1 (Homo sapiens (Human), UniProt Q00536); details: H929 live cell
How it was run: as §1

ULK3 = ULK3 (Homo sapiens (Human), UniProt Q6PHR2); details: H929 live cell
How it was run: as §2

PAK2 = PAK2 (Homo sapiens (Human), UniProt Q13177); details: H929 live cell
How it was run: as §1

MLK4 = MLK4 (Homo sapiens (Human), UniProt Q5TCX8); details: H929 live cell
How it was run: as §2

PCTAIRE1, PCTAIRE3 = details: H929 live cell; for % inhibition: 10 μM, range class
How it was run: as §1

GPRK6 = GPRK6 (Homo sapiens (Human), UniProt P43250); details: H929 live cell
How it was run: as §2

GAK = GAK (Homo sapiens (Human), UniProt O14976); details: H929 live cell
How it was run: as §2

PYK2 = PYK2 (Homo sapiens (Human), UniProt Q14289); details: H929 live cell
How it was run: as §1

[2] = range class, read-out: % inhibition

Chain of ATM (Q13315 whole entry): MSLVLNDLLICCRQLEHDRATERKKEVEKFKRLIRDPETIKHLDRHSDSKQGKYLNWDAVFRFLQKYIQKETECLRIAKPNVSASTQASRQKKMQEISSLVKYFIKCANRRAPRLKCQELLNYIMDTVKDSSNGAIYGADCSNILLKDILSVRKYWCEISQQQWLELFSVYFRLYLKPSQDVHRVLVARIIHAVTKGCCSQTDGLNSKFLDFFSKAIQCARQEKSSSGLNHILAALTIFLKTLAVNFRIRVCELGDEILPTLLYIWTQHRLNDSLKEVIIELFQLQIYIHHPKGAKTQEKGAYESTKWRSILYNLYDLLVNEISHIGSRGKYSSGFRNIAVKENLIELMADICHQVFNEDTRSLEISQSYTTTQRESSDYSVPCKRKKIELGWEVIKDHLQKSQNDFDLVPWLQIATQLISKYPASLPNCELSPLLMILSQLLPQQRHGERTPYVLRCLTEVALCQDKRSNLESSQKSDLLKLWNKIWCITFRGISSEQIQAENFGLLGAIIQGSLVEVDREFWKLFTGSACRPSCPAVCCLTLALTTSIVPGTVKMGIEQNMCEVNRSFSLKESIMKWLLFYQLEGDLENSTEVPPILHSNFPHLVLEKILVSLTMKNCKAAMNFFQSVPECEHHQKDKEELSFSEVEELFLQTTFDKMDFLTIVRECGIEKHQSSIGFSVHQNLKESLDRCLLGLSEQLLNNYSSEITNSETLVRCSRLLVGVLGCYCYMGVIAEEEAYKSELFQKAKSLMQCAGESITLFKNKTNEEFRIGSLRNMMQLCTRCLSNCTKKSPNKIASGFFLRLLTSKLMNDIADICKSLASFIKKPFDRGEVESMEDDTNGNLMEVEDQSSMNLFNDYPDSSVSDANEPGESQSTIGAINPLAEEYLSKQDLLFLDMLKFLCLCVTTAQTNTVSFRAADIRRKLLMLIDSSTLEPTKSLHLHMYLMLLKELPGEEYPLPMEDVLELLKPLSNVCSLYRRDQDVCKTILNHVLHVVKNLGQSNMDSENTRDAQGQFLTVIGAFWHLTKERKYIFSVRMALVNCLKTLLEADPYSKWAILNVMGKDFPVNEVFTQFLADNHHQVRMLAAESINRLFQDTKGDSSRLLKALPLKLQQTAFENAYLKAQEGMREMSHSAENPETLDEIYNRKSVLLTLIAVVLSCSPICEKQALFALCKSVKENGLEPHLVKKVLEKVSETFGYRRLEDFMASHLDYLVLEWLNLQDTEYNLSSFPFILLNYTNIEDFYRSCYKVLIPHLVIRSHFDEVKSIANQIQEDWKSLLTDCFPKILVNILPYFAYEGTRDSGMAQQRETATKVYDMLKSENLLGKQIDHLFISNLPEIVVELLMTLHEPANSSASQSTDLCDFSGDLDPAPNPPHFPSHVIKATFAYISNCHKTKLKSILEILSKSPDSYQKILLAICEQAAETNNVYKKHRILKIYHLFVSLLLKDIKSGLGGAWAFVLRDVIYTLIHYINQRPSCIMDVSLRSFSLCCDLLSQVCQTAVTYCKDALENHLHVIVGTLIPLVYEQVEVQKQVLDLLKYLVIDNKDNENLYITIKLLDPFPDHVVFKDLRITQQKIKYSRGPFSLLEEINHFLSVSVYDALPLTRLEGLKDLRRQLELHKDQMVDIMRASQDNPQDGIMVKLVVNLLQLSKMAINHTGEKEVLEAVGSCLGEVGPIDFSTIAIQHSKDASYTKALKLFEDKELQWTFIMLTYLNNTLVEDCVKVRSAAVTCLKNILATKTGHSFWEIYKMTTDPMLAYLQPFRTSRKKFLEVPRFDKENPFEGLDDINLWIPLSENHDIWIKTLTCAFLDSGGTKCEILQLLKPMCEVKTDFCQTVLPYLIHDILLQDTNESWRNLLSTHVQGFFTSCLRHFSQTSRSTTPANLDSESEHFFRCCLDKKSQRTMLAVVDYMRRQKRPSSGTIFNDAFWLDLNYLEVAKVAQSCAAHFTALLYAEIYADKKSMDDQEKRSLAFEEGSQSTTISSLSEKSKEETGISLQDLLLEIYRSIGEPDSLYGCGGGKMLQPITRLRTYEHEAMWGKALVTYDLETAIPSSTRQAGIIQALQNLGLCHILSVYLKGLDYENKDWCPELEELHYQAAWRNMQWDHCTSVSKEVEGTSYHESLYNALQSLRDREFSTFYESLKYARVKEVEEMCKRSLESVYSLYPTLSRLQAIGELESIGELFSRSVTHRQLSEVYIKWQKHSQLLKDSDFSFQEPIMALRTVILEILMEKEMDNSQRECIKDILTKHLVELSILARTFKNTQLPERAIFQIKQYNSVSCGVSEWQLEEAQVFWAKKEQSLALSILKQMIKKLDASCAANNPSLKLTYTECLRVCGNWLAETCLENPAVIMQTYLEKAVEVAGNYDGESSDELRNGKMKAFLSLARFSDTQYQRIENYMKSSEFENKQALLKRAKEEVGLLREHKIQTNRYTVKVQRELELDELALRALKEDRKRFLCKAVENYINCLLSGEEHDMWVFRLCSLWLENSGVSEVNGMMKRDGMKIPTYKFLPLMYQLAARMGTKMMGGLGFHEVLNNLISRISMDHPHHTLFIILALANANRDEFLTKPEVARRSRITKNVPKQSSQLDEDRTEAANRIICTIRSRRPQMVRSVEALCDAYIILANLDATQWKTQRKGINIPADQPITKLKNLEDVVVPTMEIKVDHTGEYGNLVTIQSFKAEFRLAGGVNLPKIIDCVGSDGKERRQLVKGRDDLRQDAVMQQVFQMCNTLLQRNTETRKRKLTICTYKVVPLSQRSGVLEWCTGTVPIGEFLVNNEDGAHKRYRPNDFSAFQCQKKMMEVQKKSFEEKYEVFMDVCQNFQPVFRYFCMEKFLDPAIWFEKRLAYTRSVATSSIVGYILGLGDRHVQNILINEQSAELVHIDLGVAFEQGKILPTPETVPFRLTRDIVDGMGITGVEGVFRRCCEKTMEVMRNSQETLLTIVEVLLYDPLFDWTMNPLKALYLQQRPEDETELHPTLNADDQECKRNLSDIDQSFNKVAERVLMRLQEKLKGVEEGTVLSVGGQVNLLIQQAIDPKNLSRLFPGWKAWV
Chain of GAK (O14976 whole entry): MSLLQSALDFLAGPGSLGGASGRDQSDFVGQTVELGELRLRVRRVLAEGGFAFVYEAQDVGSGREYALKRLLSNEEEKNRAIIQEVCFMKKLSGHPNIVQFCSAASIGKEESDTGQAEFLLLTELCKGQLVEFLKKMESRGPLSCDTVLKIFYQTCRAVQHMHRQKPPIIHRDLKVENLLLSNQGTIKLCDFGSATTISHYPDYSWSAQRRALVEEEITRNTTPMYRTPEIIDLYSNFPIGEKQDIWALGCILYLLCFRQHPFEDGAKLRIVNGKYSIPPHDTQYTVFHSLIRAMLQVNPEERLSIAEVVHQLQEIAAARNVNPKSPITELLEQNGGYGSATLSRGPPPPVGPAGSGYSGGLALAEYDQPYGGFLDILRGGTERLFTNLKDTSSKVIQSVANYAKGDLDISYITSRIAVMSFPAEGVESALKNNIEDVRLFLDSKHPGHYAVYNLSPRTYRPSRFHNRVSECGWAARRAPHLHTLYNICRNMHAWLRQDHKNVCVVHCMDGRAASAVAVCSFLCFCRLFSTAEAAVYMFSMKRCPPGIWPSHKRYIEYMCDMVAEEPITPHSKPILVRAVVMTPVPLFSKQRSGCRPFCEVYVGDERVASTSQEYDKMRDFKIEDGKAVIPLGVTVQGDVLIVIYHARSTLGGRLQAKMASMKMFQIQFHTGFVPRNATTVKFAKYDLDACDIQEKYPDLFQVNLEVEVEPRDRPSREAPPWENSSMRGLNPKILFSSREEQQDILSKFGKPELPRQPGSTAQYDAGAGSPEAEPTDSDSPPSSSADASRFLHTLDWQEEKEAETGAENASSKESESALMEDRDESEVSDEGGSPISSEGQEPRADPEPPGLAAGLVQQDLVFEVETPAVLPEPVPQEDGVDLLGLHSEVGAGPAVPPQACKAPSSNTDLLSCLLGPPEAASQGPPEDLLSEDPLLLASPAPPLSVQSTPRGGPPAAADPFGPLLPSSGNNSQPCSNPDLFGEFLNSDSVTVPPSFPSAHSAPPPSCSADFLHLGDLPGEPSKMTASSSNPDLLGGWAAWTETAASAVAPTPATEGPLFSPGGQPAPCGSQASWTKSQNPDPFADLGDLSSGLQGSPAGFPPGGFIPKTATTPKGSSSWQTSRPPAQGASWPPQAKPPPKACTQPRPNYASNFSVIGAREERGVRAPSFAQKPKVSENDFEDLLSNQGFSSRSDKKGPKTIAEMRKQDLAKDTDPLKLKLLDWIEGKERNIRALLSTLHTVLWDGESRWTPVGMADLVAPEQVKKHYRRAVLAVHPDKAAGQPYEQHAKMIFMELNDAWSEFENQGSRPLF
Chain of MELK (Q14680 whole entry): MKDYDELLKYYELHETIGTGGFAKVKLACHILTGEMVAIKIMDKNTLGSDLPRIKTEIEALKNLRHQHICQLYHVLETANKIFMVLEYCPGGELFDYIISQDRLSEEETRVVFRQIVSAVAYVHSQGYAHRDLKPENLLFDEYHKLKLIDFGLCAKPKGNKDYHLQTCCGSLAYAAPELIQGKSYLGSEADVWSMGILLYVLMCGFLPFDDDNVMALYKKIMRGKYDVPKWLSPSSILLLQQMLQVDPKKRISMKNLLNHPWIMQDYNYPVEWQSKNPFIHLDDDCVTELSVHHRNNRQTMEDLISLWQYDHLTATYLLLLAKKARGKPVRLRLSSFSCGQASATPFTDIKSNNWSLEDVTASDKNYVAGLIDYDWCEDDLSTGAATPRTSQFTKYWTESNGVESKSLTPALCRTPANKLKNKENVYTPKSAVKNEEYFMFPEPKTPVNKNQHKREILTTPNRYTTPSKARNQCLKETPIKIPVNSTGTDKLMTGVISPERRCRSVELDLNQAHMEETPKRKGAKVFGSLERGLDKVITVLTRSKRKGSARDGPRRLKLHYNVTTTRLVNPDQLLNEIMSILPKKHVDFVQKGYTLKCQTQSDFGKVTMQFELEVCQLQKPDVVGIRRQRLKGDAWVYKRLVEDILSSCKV

## COc1cc(NS(=O)(=O)C2CC2)ccc1-c1cnc(N)c(-c2ccc3c(c2)CCNC3=O)c1 [Compound I-50, N-(4-(6-amino-5-(1-oxo-1,2,3,4-tetrahydroisoquinolin-6-yl)pyridin-3-yl)-3-methoxyphenyl) cyclopropanesulfonamide]
[1]
  % inhibition: 75-90%
  inhibition (10 μM): 84.0%
MELK; [2]
  inhibition at 10 µM: 35 to 40%
MELK; read-out: inhibition (10 μM)
  inhibition at 10 µM: 45.9%
LZK; [2]
  inhibition at 10 µM: 0%
LZK; read-out: inhibition (10 μM)
  inhibition at 10 µM: 1.3%
PCTAIRE2, PCTAIRE3
  % inhibition: 0.0%
  inhibition (10 μM): −8.9%
MAST1, MAST2
  % inhibition: 0.0%
  inhibition (10 μM): 2.6%
ATM; [2]
  inhibition at 10 µM: 0%
ATM; read-out: inhibition (10 μM)
  inhibition at 10 µM: 34.6%
CLK3; [2]
  inhibition at 10 µM: 0%
CLK3; read-out: inhibition (10 μM)
  inhibition at 10 µM: 1.5%
MAP3K6; [2]
  inhibition at 10 µM: 0%
MAP3K6; read-out: inhibition (10 μM)
  inhibition at 10 µM: -5.4%
TAK1; [2]
  inhibition at 10 µM: 35 to 40%
TAK1; read-out: inhibition (10 μM)
  inhibition at 10 µM: 39.1%
CaMK4; [2]
  inhibition at 10 µM: 0%
CaMK4; read-out: inhibition (10 μM)
  inhibition at 10 µM: -17.9%
ZC3/MINK; [2]
  inhibition at 10 µM: 50 to 75%
ZC3/MINK; read-out: inhibition (10 μM)
  inhibition at 10 µM: 57.6%
Erk5; [2]
  inhibition at 10 µM: 0%
Erk5; read-out: inhibition (10 μM)
  inhibition at 10 µM: -2.8%
MAP3K15; [2]
  inhibition at 10 µM: 35 to 40%
MAP3K15; read-out: inhibition (10 μM)
  inhibition at 10 µM: 46.7%
LATS2; [2]
  inhibition at 10 µM: 0%
LATS2; read-out: inhibition (10 μM)
  inhibition at 10 µM: 1.1%
PCTAIRE1; [2]
  inhibition at 10 µM: 0%
PCTAIRE1; read-out: inhibition (10 μM)
  inhibition at 10 µM: -15.6%
ULK3; [2]
  inhibition at 10 µM: 0%
ULK3; read-out: inhibition (10 μM)
  inhibition at 10 µM: -14.2%
PAK2; [2]
  inhibition at 10 µM: 0%
PAK2; read-out: inhibition (10 μM)
  inhibition at 10 µM: 20.2%
MLK4; [2]
  inhibition at 10 µM: 0%
MLK4; read-out: inhibition (10 μM)
  inhibition at 10 µM: 30.2%
PCTAIRE1, PCTAIRE3
  % inhibition: 0.0%
  inhibition (10 μM): −3.5%
GPRK6; [2]
  inhibition at 10 µM: 0%
GPRK6; read-out: inhibition (10 μM)
  inhibition at 10 µM: -40.5%
GAK; [2]
  inhibition at 10 µM: 50 to 75%
GAK; read-out: inhibition (10 μM)
  inhibition at 10 µM: 51.1%
PYK2; [2]
  inhibition at 10 µM: 0%
PYK2; read-out: inhibition (10 μM)
  inhibition at 10 µM: 31.5%

## Nc1ncc(-c2ccc(NS(=O)(=O)C3CC3)cc2F)cc1-c1ccc2c(c1)CCNC2=O [Compound I-51, N-(4-(6-amino-5-(1-oxo-1,2,3,4-tetrahydroisoquinolin-6-yl)pyridin-3-yl)-3-fluorophenyl) cyclopropanesulfonamide]
[1]
  % inhibition: 75-90%
  inhibition (10 μM): 76.2%
MELK; [2]
  inhibition at 10 µM: 35 to 40%
MELK; read-out: inhibition (10 μM)
  inhibition at 10 µM: 49.5%
LZK; [2]
  inhibition at 10 µM: 0%
LZK; read-out: inhibition (10 μM)
  inhibition at 10 µM: 11.3%
PCTAIRE2, PCTAIRE3
  % inhibition: 0.0%
  inhibition (10 μM): 5.1%
MAST1, MAST2
  % inhibition: 0.0%
  inhibition (10 μM): −2.9%
ATM; [2]
  inhibition at 10 µM: 35 to 40%
ATM; read-out: inhibition (10 μM)
  inhibition at 10 µM: 40.3%
CLK3; [2]
  inhibition at 10 µM: 0%
CLK3; read-out: inhibition (10 μM)
  inhibition at 10 µM: 23.3%
MAP3K6; [2]
  inhibition at 10 µM: 0%
MAP3K6; read-out: inhibition (10 μM)
  inhibition at 10 µM: 24.4%
TAK1; [2]
  inhibition at 10 µM: 0%
TAK1; read-out: inhibition (10 μM)
  inhibition at 10 µM: 30%
CaMK4; [2]
  inhibition at 10 µM: 0%
CaMK4; read-out: inhibition (10 μM)
  inhibition at 10 µM: -61.2%
ZC3/MINK; [2]
  inhibition at 10 µM: 50 to 75%
ZC3/MINK; read-out: inhibition (10 μM)
  inhibition at 10 µM: 63.4%
Erk5; [2]
  inhibition at 10 µM: 0%
Erk5; read-out: inhibition (10 μM)
  inhibition at 10 µM: -13.2%
MAP3K15; [2]
  inhibition at 10 µM: 35 to 40%
MAP3K15; read-out: inhibition (10 μM)
  inhibition at 10 µM: 36.4%
LATS2; [2]
  inhibition at 10 µM: 0%
LATS2; read-out: inhibition (10 μM)
  inhibition at 10 µM: 16.1%
PCTAIRE1; [2]
  inhibition at 10 µM: 0%
PCTAIRE1; read-out: inhibition (10 μM)
  inhibition at 10 µM: -0.2%
ULK3; [2]
  inhibition at 10 µM: 0%
ULK3; read-out: inhibition (10 μM)
  inhibition at 10 µM: 1.8%
PAK2; [2]
  inhibition at 10 µM: 0%
PAK2; read-out: inhibition (10 μM)
  inhibition at 10 µM: -14%
MLK4; [2]
  inhibition at 10 µM: 0%
MLK4; read-out: inhibition (10 μM)
  inhibition at 10 µM: 14.2%
PCTAIRE1, PCTAIRE3
  % inhibition: 0.0%
  inhibition (10 μM): 29.4%
GPRK6; [2]
  inhibition at 10 µM: 0%
GPRK6; read-out: inhibition (10 μM)
  inhibition at 10 µM: 4.7%
GAK; [2]
  inhibition at 10 µM: 50 to 75%
GAK; read-out: inhibition (10 μM)
  inhibition at 10 µM: 50.4%
PYK2; [2]
  inhibition at 10 µM: 0%
PYK2; read-out: inhibition (10 μM)
  inhibition at 10 µM: 30.1%

## Nc1ncc(-c2ccc(NS(=O)(=O)C3CC3)cc2OC2CCCCC2)cc1-c1ccc2c(c1)CCNC2=O [Compound I-65, N-(4-(6-amino-5-(1-oxo-1,2,3,4-tetrahydroisoquinolin-6-yl)pyridin-3-yl)-3-(cyclohexyloxy)phenyl) cyclopropanesulfonamide]
[1]
  % inhibition: >90%
  inhibition (10 μM): 91.0%
MELK; [2]
  inhibition at 10 µM: 50 to 75%
MELK; read-out: inhibition (10 μM)
  inhibition at 10 µM: 56.5%
LZK; [2]
  inhibition at 10 µM: 35 to 40%
LZK; read-out: inhibition (10 μM)
  inhibition at 10 µM: 43.1%
PCTAIRE2, PCTAIRE3
  % inhibition: 0.0%
  inhibition (10 μM): 20.3%
MAST1, MAST2
  % inhibition: 0.0%
  inhibition (10 μM): 3.0%
ATM; [2]
  inhibition at 10 µM: 35 to 40%
ATM; read-out: inhibition (10 μM)
  inhibition at 10 µM: 48%
CLK3; [2]
  inhibition at 10 µM: 35 to 40%
CLK3; read-out: inhibition (10 μM)
  inhibition at 10 µM: 40%
MAP3K6; [2]
  inhibition at 10 µM: 0%
MAP3K6; read-out: inhibition (10 μM)
  inhibition at 10 µM: -7.2%
TAK1; [2]
  inhibition at 10 µM: 35 to 40%
TAK1; read-out: inhibition (10 μM)
  inhibition at 10 µM: 35%
CaMK4; [2]
  inhibition at 10 µM: 0%
CaMK4; read-out: inhibition (10 μM)
  inhibition at 10 µM: -21%
ZC3/MINK; [2]
  inhibition at 10 µM: 50 to 75%
ZC3/MINK; read-out: inhibition (10 μM)
  inhibition at 10 µM: 66.6%
Erk5; [2]
  inhibition at 10 µM: 0%
Erk5; read-out: inhibition (10 μM)
  inhibition at 10 µM: -6.5%
MAP3K15; [2]
  inhibition at 10 µM: 0%
MAP3K15; read-out: inhibition (10 μM)
  inhibition at 10 µM: 29.7%
LATS2; [2]
  inhibition at 10 µM: 0%
LATS2; read-out: inhibition (10 μM)
  inhibition at 10 µM: -0.2%
PCTAIRE1; [2]
  inhibition at 10 µM: 0%
PCTAIRE1; read-out: inhibition (10 μM)
  inhibition at 10 µM: 9%
ULK3; [2]
  inhibition at 10 µM: 0%
ULK3; read-out: inhibition (10 μM)
  inhibition at 10 µM: 30.6%
PAK2; [2]
  inhibition at 10 µM: 0%
PAK2; read-out: inhibition (10 μM)
  inhibition at 10 µM: 1.7%
MLK4; [2]
  inhibition at 10 µM: 50 to 75%
MLK4; read-out: inhibition (10 μM)
  inhibition at 10 µM: 56.9%
PCTAIRE1, PCTAIRE3
  % inhibition: 0.0%
  inhibition (10 μM): 2.3%
GPRK6; [2]
  inhibition at 10 µM: 0%
GPRK6; read-out: inhibition (10 μM)
  inhibition at 10 µM: 23.1%
GAK; [2]
  inhibition at 10 µM: 0%
GAK; read-out: inhibition (10 μM)
  inhibition at 10 µM: 7.7%
PYK2; [2]
  inhibition at 10 µM: 35 to 40%
PYK2; read-out: inhibition (10 μM)
  inhibition at 10 µM: 38.7%
